Consider eleven compounds from patent US20250333407A1, “Compounds and Their Use for Treatment of Hemoglobinopathies” (Bristol-Myers Squibb Company, priority 2024, published 2025).

What all share (assay type): cell-based
The target of one test is T1, ZBTB7A (Homo sapiens, UniProt O95365+Q96SW2).
T1 construct: HUDEP-2 cells engineered to express a HiBiT tag in either the WIZ (Widely interspaced zinc finger) or ZBTB7A
Nature of the test: HUDEP-2 ZBTB7A HiBiT degradation assay. Conditions: HiBiT-tagged ZBTB7A degradation in HUDEP-2 cells, 24 hours of treatment; read-out: ZBTB7A EC50. The procedure:
(§1) WIZ Assay and ZBTB7A EC50 Assays. The HiBiT degradation assays for WIZ and ZBTB7A in HUDEP-2 cells were performed as described below. HUDEP-2 cells engineered to express a HiBiT tag in either the WIZ (Widely interspaced zinc finger) or ZBTB7A (Zinc Finger And BTB Domain Containing 7A) proteins were maintained in low attachment flasks in StemSpan SFEM II media supplemented with Penicillin-Streptomycin (50 U/mL), rhSCF (50 ng/mL), rhEPO (3 IU/mL), dexamethasone (0.4 μg/mL) and doxycycline (1 μg/mL). Prior to start of the assay, cell count and viability were measured by trypan blue exclusion using the Vi-cell XR cell viability analyzer.
For the HUDEP-2 ZBTB7A HiBiT assay, cell count and viability were measured by trypan blue exclusion using the Vi-cell XR cell viability analyzer and the cells were transferred to a 50 mL conical and centrifuged at 500 g for five minutes. Cells were resuspended in fresh IMDM media supplemented with L-Glutamine (1×), Penicillin-Streptomycin (50 U/mL), holo-transferrin (330 μg/mL), heparin (2 IU/mL), r-human Insulin (10 μg/mL), rhEPO (3 IU/mL), rhSCF (100 ng/mL)+Dox (1 μg/mL) and 5% human plasma in low attachment flasks, which were placed in a 37° C. incubator with 5% CO2. After 48 hours, cell count and viability were measured by trypan blue exclusion using the Vi-cell XR cell viability analyzer. The HUDEP-2 ZBTB7A cells were transferred to a 50 mL conical, centrifuged at 500 g for five minutes and resuspended at a density of 1.0×10^6 cells/ml in IMDM media supplemented with L-Glutamine (1×), Penicillin-Streptomycin (50 U/mL), holo-transferrin (330 μg/mL), heparin (2 IU/mL), r-human Insulin (10 μg/mL), rhEPO (3 IU/mL), rhSCF (100 ng/mL)+Dox (1 μg/mL) and 5% human plasma. Forty microliters of cell suspension was dispensed into 384-well Low Flange White Flat Bottom Polystyrene TC-treated Microplates containing pre-dispensed compounds, using a VIAFLO 384 liquid hander, and placed in a 37° C. incubator with 5% CO2. […] After 24 hours of treatment, 40 μL Nano-Glo HiBiT Lytic Detection System reagent was dispensed into each well using a VIAFLO 384 liquid hander. Plates were incubated for 25 minutes at room temperature and the luminescence was read as relative luminescent units using the EnVision plate reader. EC50 and Y-min values were calculated using curves calculated from dotmatics software after the normalization to the DMSO control of 10 different concentrations: 10, 3.33, 1.11, 0.37, 0.12, 0.04 0.0137, 0.0046, 0.0015 and […] respectively.
A general note: With HiBiT, luminescence reflects the tagged protein that the partner subunit can reach.

The next test deals with T2, WIZ (Homo sapiens, UniProt O95785+Q96SW2).
T2 construct: HUDEP-2 cells engineered to express a HiBiT tag in either the WIZ (Widely interspaced zinc finger) or ZBTB7A
T2 sequence (O95785 whole entry): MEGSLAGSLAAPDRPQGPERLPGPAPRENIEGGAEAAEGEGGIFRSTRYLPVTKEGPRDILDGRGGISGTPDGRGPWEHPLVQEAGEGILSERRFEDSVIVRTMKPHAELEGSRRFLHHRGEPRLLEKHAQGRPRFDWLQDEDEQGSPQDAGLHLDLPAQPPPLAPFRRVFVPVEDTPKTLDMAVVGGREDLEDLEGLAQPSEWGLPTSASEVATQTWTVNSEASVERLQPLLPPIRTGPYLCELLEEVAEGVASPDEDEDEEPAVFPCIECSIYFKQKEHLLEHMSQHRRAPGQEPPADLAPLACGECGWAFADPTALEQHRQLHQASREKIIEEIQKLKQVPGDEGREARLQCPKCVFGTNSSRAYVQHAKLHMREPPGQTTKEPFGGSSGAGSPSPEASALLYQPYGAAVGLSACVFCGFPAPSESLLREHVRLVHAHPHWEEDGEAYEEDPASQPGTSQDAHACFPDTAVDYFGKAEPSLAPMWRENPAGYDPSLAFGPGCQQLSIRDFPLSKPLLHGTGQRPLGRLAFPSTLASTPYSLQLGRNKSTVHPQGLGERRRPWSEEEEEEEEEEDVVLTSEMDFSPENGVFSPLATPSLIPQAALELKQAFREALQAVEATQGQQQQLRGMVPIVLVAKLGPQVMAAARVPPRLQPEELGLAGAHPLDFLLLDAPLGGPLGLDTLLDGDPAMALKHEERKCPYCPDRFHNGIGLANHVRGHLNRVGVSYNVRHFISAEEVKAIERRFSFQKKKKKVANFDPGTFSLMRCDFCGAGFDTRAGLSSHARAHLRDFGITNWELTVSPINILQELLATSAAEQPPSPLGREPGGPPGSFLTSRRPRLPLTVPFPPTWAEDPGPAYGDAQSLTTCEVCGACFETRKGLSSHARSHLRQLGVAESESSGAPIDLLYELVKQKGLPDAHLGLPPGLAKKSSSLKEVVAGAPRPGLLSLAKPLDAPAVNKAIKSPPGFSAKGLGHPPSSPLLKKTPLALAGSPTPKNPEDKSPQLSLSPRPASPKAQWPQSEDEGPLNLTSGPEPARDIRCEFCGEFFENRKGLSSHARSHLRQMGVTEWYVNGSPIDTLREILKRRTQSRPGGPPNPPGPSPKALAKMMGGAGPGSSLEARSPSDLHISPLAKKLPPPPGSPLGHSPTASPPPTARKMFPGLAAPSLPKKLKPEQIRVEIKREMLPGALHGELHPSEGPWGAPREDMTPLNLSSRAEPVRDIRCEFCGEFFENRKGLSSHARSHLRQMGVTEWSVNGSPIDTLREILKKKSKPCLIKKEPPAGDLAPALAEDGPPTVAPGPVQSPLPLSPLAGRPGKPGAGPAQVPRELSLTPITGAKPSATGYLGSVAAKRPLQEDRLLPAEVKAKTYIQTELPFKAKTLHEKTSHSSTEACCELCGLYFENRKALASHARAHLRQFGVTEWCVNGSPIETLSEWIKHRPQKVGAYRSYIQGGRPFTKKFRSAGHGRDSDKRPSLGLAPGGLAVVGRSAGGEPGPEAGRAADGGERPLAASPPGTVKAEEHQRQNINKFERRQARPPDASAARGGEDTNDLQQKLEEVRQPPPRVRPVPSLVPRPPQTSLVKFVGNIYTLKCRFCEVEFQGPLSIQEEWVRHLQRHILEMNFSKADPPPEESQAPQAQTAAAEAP
T2 sequence (Q96SW2 whole entry): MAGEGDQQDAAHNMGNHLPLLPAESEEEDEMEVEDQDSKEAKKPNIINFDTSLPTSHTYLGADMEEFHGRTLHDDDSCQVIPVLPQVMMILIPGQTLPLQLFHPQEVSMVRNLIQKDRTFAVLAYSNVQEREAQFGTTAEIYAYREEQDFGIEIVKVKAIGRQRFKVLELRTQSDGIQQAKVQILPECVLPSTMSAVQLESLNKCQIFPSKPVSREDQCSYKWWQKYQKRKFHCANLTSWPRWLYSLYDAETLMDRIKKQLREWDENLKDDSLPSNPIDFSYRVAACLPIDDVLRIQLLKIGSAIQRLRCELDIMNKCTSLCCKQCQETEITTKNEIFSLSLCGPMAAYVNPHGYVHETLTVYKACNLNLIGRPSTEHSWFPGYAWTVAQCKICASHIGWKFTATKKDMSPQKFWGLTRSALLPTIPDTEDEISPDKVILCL
T2 sequence (Q16531 whole entry partner): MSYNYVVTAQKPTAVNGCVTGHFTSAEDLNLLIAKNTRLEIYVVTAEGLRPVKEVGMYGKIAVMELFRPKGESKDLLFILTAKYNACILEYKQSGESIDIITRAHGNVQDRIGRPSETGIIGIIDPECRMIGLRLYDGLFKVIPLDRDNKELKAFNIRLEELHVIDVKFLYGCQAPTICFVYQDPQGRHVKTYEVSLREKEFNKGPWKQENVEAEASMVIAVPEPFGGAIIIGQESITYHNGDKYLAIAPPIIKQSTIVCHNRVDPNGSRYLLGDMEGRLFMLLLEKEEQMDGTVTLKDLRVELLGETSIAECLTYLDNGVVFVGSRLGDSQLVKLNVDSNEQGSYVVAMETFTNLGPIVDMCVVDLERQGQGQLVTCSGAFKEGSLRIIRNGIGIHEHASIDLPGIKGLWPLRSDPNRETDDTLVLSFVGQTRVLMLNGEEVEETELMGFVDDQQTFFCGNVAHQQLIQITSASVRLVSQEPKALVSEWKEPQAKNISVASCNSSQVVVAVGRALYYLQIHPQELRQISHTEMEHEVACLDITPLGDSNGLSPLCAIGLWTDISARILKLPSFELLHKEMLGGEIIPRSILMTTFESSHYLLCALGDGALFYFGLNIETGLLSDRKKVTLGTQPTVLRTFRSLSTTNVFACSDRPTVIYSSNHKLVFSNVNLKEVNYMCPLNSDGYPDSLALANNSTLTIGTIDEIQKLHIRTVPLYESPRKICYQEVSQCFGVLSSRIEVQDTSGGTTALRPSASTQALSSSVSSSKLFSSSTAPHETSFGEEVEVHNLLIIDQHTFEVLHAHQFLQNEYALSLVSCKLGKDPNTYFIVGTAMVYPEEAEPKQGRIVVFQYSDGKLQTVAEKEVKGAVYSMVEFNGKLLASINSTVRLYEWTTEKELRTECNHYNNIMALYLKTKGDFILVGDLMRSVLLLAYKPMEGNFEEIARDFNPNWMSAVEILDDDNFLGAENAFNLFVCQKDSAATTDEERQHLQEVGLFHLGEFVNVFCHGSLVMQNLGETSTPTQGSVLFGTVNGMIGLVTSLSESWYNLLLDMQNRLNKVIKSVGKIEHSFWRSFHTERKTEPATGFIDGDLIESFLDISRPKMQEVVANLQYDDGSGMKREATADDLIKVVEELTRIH
Nature of the test: HUDEP-2 WIZ HiBiT degradation assay. Conditions: HiBiT-tagged WIZ degradation in HUDEP-2 cells, 24 hours of treatment; read-out: WIZ EC50. As to the method:
as §1
For the HUDEP-2 WIZ HiBiT assay, cells were transferred to a 50 mL conical and centrifuged at 500 g for five minutes. Cells were resuspended in fresh StemSpan SFEM II media supplemented with Penicillin-Streptomycin (50 U/mL), rhSCF (50 ng/mL), rhEPO (3 IU/mL), dexamethasone (0.4 μg/mL) and doxycycline (1 μg/mL) at a density of 1.0×10^6 cells/ml. Forty microliters of cell suspension was dispensed into 384-well Low Flange White Flat Bottom Polystyrene TC-treated Microplates containing pre-dispensed compounds, using a VIAFLO 384 liquid hander, and placed in a 37° C. incubator with 5% CO2. […] After 24 hours of treatment, 40 μL Nano-Glo HiBiT Lytic Detection System reagent was dispensed into each well using a VIAFLO 384 liquid hander. Plates were incubated for 25 minutes at room temperature and the luminescence was read as relative luminescent units using the EnVision plate reader. EC50 and Y-min values were calculated using curves calculated from dotmatics software after the normalization to the DMSO control of 10 different concentrations: 10, 3.33, 1.11, 0.37, 0.12, 0.04 0.0137, 0.0046, 0.0015 and […] respectively.

The subject of another test is HbF. As to the kind of experiment: HbF HiBiT induction assay in HUDEP-2 cells. The settings on record: HUDEP-2 cells with HiBiT tag in HBG1/2, 72 hours of treatment; area under the dose response curve, higher AUC = greater HbF induction. As to the method:
HbF HiBiT induction assay. The HiBiT induction assay for HbF in HUDEP-2 cells was performed as described below. HUDEP-2 cells engineered to express a HiBiT tag in HBG1/2 were maintained at a density of 0.1-1×10^6 cells/ml in StemSpan SFEM II supplemented with 1% penicillin/streptomycin, hSCF (50 ng/mL), erythropoietin (EPO; 3 IU/mL), dexamethasone (DEX; 0.4 μg/mL), and doxycycline hyclate (DOX; 1 μg/mL). The cells were cultured in low adherence flasks, in a humidified incubator, set at 37° C. with 5% CO2. Cell counts and viability were measured by trypan blue exclusion using the Vi-CELL XR cell viability analyzer and the cell growth was consistently maintained in log phase.
Prior to the start of experiments, HbF HiBiT-tagged HUDEP-2 cells were transferred to a 50 mL conical and centrifuged at 500×g for 5 minutes, the supernatant removed, and the pellet washed in 5 mL of 1×PBS. The washed cells were centrifuged again at 500×g for 5 minutes and resuspended in IMDM containing; 1×glutamine, 1×penicillin/streptomycin, holo-transferrin (330 μg/mL), heparin (2 IU/mL), r-human insulin (10 μg/mL), EPO (3 IU/mL), 5% human plasma, hSCF (100 ng/mL) and DOX (1 μg/mL) to a final density of 0.3×10^6 cells/mL. Forty microliters of cell suspension were dispensed into 384-well Low Flange White Flat Bottom Polystyrene TC-treated Microplates containing pre-dispensed compounds, using a VIAFLO 384 liquid hander, and placed in a humidified incubator at 37° C. with 5% CO2. […] After 72 hours of treatment, 40 μL of Nano-Glo HiBiT Lytic Solution (prepared according to manufacturer's instructions) were dispensed into each well using a VIAFLO 384 liquid handler, and the plates were shaken for 20 seconds. Plates were incubated for 20 minutes at room temperature, and the luminescence was read as relative luminescent units using an EnVision plate reader.
Dose response curves were generated, and EC50, Ymax, and then area under the curve (AUC) values were calculated. HbF induction was measured using the calculated area under the curve (AUC) value, with higher AUC values indicative of greater HbF induction relative to lower AUC values.

T1 sequence (O95365 whole entry): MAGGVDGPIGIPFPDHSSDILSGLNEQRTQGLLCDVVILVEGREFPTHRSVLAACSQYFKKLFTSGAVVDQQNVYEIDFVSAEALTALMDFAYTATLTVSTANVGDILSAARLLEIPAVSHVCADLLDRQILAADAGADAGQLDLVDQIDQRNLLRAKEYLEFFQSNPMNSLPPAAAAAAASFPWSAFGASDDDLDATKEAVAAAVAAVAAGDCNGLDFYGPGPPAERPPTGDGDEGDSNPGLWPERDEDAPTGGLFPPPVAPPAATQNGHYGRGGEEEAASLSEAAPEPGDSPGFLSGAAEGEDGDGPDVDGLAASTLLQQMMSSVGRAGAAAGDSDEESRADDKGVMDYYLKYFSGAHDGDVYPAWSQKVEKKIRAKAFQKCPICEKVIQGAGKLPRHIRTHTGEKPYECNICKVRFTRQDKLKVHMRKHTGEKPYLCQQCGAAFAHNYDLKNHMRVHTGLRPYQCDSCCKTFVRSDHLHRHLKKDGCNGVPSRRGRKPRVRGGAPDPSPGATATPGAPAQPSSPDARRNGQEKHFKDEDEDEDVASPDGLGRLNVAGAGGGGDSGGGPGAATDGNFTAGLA
T1 sequence (Q96SW2 whole entry): as the sequence (Q96SW2 whole entry) above
T1 sequence (Q16531 whole entry partner): as the sequence (Q16531 whole entry partner) above

Turning to `CCO[C@H]1CC[C@H](c2cc3c(cc2Nc2cccc4c2C(=O)N([C@@H]2CCC(=O)NC2=O)C4=O)N(C)C(=O)[C@@H](C)O3)CC1` [Compound 54, 2-((R)-2,6-dioxopiperidin-3-yl)-4-(((R)-7-((1r,4R)-4-ethoxycyclohexyl)-2,4-dimethyl-3-oxo-3,4-dihydro-2H-benzo[b][1,4]oxazin-6-yl)amino)isoindoline-1,3-dione], the DC50 on ZBTB7A was 14 nM; at WIZ, 8 nM. Further, the “HBF AUC” value in the test with HbF was “++ (++ = 100 ≤ AUC < 150)”.
`Cc1cc(-c2cc3c(cc2Nc2cccc4c2C(=O)N([C@@H]2CCC(=O)NC2=O)C4=O)N(C)C(=O)OC3)ccn1` [Compound 12, (R)-2-(2,6-dioxopiperidin-3-yl)-4-((1-methyl-6-(2-methylpyridin-4-yl)-2-oxo-1,4-dihydro-2H-benzo[d][1,3]oxazin-7-yl)amino)isoindoline-1,3-dione]: the figures for the DC50 at ZBTB7A and at WIZ were 34 nM and 37 nM, respectively. The “HBF AUC” value in the test on HbF is “+ (+ = 15 ≤ AUC < 100)”.
With `Cc1cc(-c2cc3c(cc2Nc2cccc4c2C(=O)N([C@H]2CCC(=O)NC2=O)C4=O)N(C)C(=O)CO3)cc(C)n1` [Compound 8, (S)-4-((7-(2,6-dimethylpyridin-4-yl)-4-methyl-3-oxo-3,4-dihydro-2H-benzo[b][1,4]oxazin-6-yl)amino)-2-(2,6-dioxopiperidin-3-yl)isoindoline-1,3-dione], the DC50 at ZBTB7A came to 21 nM; on WIZ, 15 nM. Further, in the test on HbF, the “HBF AUC” value is “+++ (+++ = AUC ≥ 150)”.
Take `CCOc1nccc(-c2cc3c(cc2Nc2cccc4c2C(=O)N(C2CCC(=O)NC2=O)C4=O)N(C)C(=O)CO3)c1C` (stereo not drawn) [Compound 64, 2-(2,6-dioxopiperidin-3-yl)-4-((7-(2-ethoxy-3-methylpyridin-4-yl)-4-methyl-3-oxo-3,4-dihydro-2H-benzo[b][1,4]oxazin-6-yl)amino)isoindoline-1,3-dione]: the DC50 on ZBTB7A is 53 nM; at WIZ it was 12 nM. Also, the “HBF AUC” value in the test on HbF is on record as “++ (++ = 100 ≤ AUC < 150)”.
On to `Cc1ccc(-c2cc3c(cc2Nc2cccc4c2C(=O)N([C@H]2CCC(=O)NC2=O)C4=O)N(C)C(=O)CO3)c(F)n1` [Compound 37, (S)-2-(2,6-dioxopiperidin-3-yl)-4-((7-(2-fluoro-6-methylpyridin-3-yl)-4-methyl-3-oxo-3,4-dihydro-2H-benzo[b][1,4]oxazin-6-yl)amino)isoindoline-1,3-dione], for which the DC50 at ZBTB7A turned out to be 13 nM; on WIZ, 7 nM. In addition, the “HBF AUC” value in the test with HbF is on record as “+ (+ = 15 ≤ AUC < 100)”.
`COc1cc(-c2cc3c(cc2Nc2cccc4c2C(=O)N([C@H]2CCC(=O)NC2=O)C4=O)N(C)C(=O)[C@H](C)O3)c(F)cn1` [Compound 29, 2-((S)-2,6-dioxopiperidin-3-yl)-4-(((S)-7-(5-fluoro-2-methoxypyridin-4-yl)-2,4-dimethyl-3-oxo-3,4-dihydro-2H-benzo[b][1,4]oxazin-6-yl)amino)isoindoline-1,3-dione]: the DC50 on ZBTB7A was determined as 23 nM; at WIZ, 5 nM. Further, the “HBF AUC” value in the test on HbF was “+ (+ = 15 ≤ AUC < 100)”.
In the case of `CO[C@H]1CC[C@@H](c2cc3c(cc2Nc2cccc4c2C(=O)N(C2CCC(=O)NC2=O)C4=O)N(C)C(=O)CC3)CC1` (stereo partly drawn) [Compound 92, 2-(2,6-dioxopiperidin-3-yl)-4-((6-((1s,4s)-4-methoxycyclohexyl)-1-methyl-2-oxo-1,2,3,4-tetrahydroquinolin-7-yl)amino)isoindoline-1,3-dione], the DC50 at ZBTB7A stood at 3 nM; on WIZ it was 2 nM. Moreover, in the test with HbF, the “HBF AUC” value is reported as “+ (+ = 15 ≤ AUC < 100)”.
With `Cc1cc(-c2cc3c(cc2Nc2cccc4c2C(=O)N([C@@H]2CCC(=O)NC2=O)C4=O)N(C)C(=O)CO3)ccn1` [Compound 59, (R)-2-(2,6-dioxopiperidin-3-yl)-4-((4-methyl-7-(2-methylpyridin-4-yl)-3-oxo-3,4-dihydro-2H-benzo[b][1,4]oxazin-6-yl)amino)isoindoline-1,3-dione], the figures for the DC50 on ZBTB7A and at WIZ were 10 nM and 8 nM, respectively. In the test with HbF, the “HBF AUC” value is “+++ (+++ = AUC ≥ 150)”.
For `Cc1cc(-c2cc3c(cc2Nc2cccc4c2C(=O)N(C2CCC(=O)NC2=O)C4=O)N(C)CCO3)ccn1` (stereo not drawn) [Compound 1, 2-(2,6-dioxopiperidin-3-yl)-4-((4-methyl-7-(2-methylpyridin-4-yl)-3,4-dihydro-2H-benzo[b][1,4]oxazin-6-yl)amino)isoindoline-1,3-dione] the same measures were 18 nM, 21 nM and “+ (+ = 15 ≤ AUC < 100)”.
Regarding `CNc1cc(-c2cc3c(cc2Nc2cccc4c2C(=O)N(C2CCC(=O)NC2=O)C4=O)N(C)C(=O)CO3)ccn1` (stereo not drawn) [Compound 14, 2-(2,6-dioxopiperidin-3-yl)-4-((4-methyl-7-(2-(methylamino)pyridin-4-yl)-3-oxo-3,4-dihydro-2H-benzo[b][1,4]oxazin-6-yl)amino)isoindoline-1,3-dione], the DC50 at ZBTB7A is 17 nM; on WIZ, 12 nM. Moreover, in the test with HbF, the “HBF AUC” value is listed as “+ (+ = 15 ≤ AUC < 100)”.
`Cc1cc(-c2cc3c(cc2Nc2cccc4c2C(=O)N([C@H]2CCC(=O)NC2=O)C4=O)N(C)C(=O)CO3)c(F)cn1` [Compound 7, (S)-2-(2,6-dioxopiperidin-3-yl)-4-((7-(5-fluoro-2-methylpyridin-4-yl)-4-methyl-3-oxo-3,4-dihydro-2H-benzo[b][1,4]oxazin-6-yl)amino)isoindoline-1,3-dione]: the DC50 at ZBTB7A turned out to be 9 nM; on WIZ it was 7 nM. For the same compound, in the test on HbF, the “HBF AUC” value was “+++ (+++ = AUC ≥ 150)”.
